Experimental data from the NIST ThermoML archive (doi:10.1016/j.fluid.2018.10.006).

Details: Fluid (supercritical or subcritical phases), Coaxial cylinder method

CCCCCC [hexane]
thermal conductivity [W/m/K]
Details	509.85 K	510.36 K
245 kPa	–	0.0379
1000 kPa	–	0.03854
2245 kPa	–	0.04183
2715 kPa	–	0.04665
2965 kPa	0.05466	–
2970 kPa	0.05502	–
2975 kPa	0.05557	–
2980 kPa	0.05557	–
2985 kPa	0.05595	–
2990 kPa	0.05595	–
2995 kPa	0.05651	–
3000 kPa	0.0569	–
3005 kPa	0.05749	–
3010 kPa	0.05788	–
3015 kPa	0.05829	–
3020 kPa	0.05869	–
3025 kPa	0.05975	–
3030 kPa	0.05975	–
3035 kPa	0.05975	–
3040 kPa	0.06085	–
3045 kPa	0.0613	–
3050 kPa	0.0618	–
3055 kPa	0.06256	–
3060 kPa	0.06305	–
3065 kPa	0.06429	–
3070 kPa	0.06507	–
3080 kPa	0.06696	–
3085 kPa	0.06809	–
3090 kPa	0.06955	–
3095 kPa	0.07139	–
3100 kPa	0.07333	–
3105 kPa	0.07573	–
3110 kPa	0.07753	0.06796
3112 kPa	–	0.06824
3114 kPa	–	0.06881
3115 kPa	0.08101	–
3116 kPa	–	0.06939
3118 kPa	–	0.07027
3120 kPa	0.08569	0.07087
3122 kPa	–	0.07148
3124 kPa	–	0.07242
3125 kPa	0.08932	–
3126 kPa	–	0.07338
3128 kPa	–	0.07403
3130 kPa	0.09098	0.0747
3132 kPa	–	0.07538
3133 kPa	–	0.07607
3134 kPa	–	0.07624
3135 kPa	0.09203	–
3137 kPa	–	0.0784
3138 kPa	–	0.07915
3139 kPa	–	0.07991
3140 kPa	0.08826	0.08056
3141 kPa	–	0.08119
3142 kPa	–	0.08199
3143 kPa	–	0.08268
3144 kPa	–	0.0833
3145 kPa	0.08512	0.08393
3146 kPa	–	0.08457
3147 kPa	–	0.08501
3148 kPa	–	0.08552
3150 kPa	0.0829	0.08631
3151 kPa	–	0.08656
3152 kPa	–	0.08673
3153 kPa	–	0.08695
3154 kPa	–	0.08709
3155 kPa	0.08149	0.087
3156 kPa	–	0.08691
3157 kPa	–	0.08682
3158 kPa	–	0.08656
3159 kPa	–	0.08634
3160 kPa	0.07984	0.08604
3161 kPa	–	0.08582
3162 kPa	–	0.08548
3163 kPa	–	0.08518
3164 kPa	–	0.08476
3166 kPa	–	0.08393
3168 kPa	–	0.0832
3170 kPa	0.07755	0.08248
3172 kPa	–	0.08173
3174 kPa	–	0.08088
3176 kPa	–	0.08019
3178 kPa	–	0.07941
3180 kPa	0.07646	0.07883
3182 kPa	–	0.07826
3184 kPa	–	0.07767
3186 kPa	–	0.07716
3188 kPa	–	0.07654
3190 kPa	0.07505	0.076
3192 kPa	–	0.07563
3194 kPa	–	0.07525
3196 kPa	–	0.07489
3198 kPa	–	0.07452
3200 kPa	0.07436	0.07416
3202 kPa	–	0.0738
3204 kPa	–	0.07362
3206 kPa	–	0.07337
3208 kPa	–	0.07309
3210 kPa	0.07368	0.07292
3212 kPa	–	0.07274
3214 kPa	–	0.0724
3216 kPa	–	0.0724
3218 kPa	–	0.07206
3220 kPa	0.07319	0.07206
3222 kPa	–	0.07189
3225 kPa	–	0.07175
3228 kPa	–	0.07155
3230 kPa	0.07264	–
3240 kPa	0.07251	–
3250 kPa	0.07211	–
3260 kPa	0.07181	–
3270 kPa	0.07177	–
3280 kPa	0.07145	–
3290 kPa	0.07134	–
3300 kPa	0.07091	–
3310 kPa	0.07096	–
3320 kPa	0.07054	–
3330 kPa	0.07035	–
3340 kPa	0.06992	–
3390 kPa	0.06989	–
3400 kPa	0.06989	–
3450 kPa	0.06947	–
3500 kPa	0.06961	–
3600 kPa	0.06975	–
3800 kPa	0.07031	–
4000 kPa	0.07061	–
4200 kPa	0.07105	–
4400 kPa	0.07134	–
4600 kPa	0.07179	–
4800 kPa	0.07215	–
5000 kPa	0.07254	–
5200 kPa	0.07285	–
5400 kPa	0.07315	–
5600 kPa	0.07355	–
5800 kPa	0.07393	–
6000 kPa	0.07421	–
6200 kPa	0.07453	–
6400 kPa	0.07484	–
6600 kPa	0.07514	–
6800 kPa	0.07543	–
7000 kPa	0.0757	–
7200 kPa	0.07596	–
7400 kPa	0.07619	–
7600 kPa	0.07646	–
7800 kPa	0.07673	–
8000 kPa	0.07679	–
8200 kPa	0.07703	–
8500 kPa	0.07741	–
9000 kPa	0.07802	–
9500 kPa	0.07856	–
10000 kPa	0.0791	–
